Results reported in patent publication US12678440B2, “Compositions and methods for treating misfolded protein ocular disorders” (CASE WESTERN RESERVE UNIVERSITY, priority 2020, dated 2026).

Legend:
[1] = system: P23H rhodopsin; assay: Immunoblot of rhodopsin, MTX plus BafA1 or MG-132, NIH3T3 (RHO^P23H/GFP) cells; assay type: cell-based; conditions: 10 μM MTX + 100 nM BafA1, 24 h
Protocol: (§1) Cells were seeded in 6-well plates at a density of 5×10^5 cells/well and cultured at 37° C. with 5% CO2 for 17 h. The medium was replaced with a fresh medium containing a corresponding concentration of compounds. After treatment for 24 h, cells collected and lysed in 150 μL PBS containing 0.1% SDS and complete protease inhibitor cocktail with 12 s of sonication on ice. Retina samples were lysed in 300 μL per retina of PBS containing 0.1% SDS and complete protease inhibitor cocktail under 24 s of sonication on ice. Protein concentrations were determined by measurements of OD280 nm using a Nanodrop spectrometer. To immunoblot rhodopsin, one hundred μg of total protein for NIH3T3 (RHO^P23H/GFP) cells, or twenty μg of total protein for NIH3T3 (RHO^WT/GFP) cells was loaded per well onto an SDS-PAGE gel. To detect other proteins, fifty μg of total protein was loaded per well. After separation by electrophoresis in 10% and 16% SDS-PAGE gels, proteins were transferred to a nitrocellulose membrane using a wet membrane electrotransfer cassette followed by blocking with 5% bovine serum albumin in PBS containing 0.05% Tween 20 for 1 h. The membranes were incubated with primary antibodies at 4° C. overnight following with appropriate secondary antibodies for 1 h at room temperature. […]

[2] = system: SQSTM1/p62 and LC3-II in retinae of Rho^P23H/+ knock-in mice; assay: Autophagy flux in retinae after intravitreal injection (immunoblots of SQSTM1/p62 and LC3); assay type: in vivo, mouse; conditions: 25 pmol IVI at PND 15, 48 h, vs PBS
Protocol: as §1

[3] = system: Rho^P23H/+ mice; assay: Retinal immunohistochemistry (IHC) after intravitreal injection; assay type: in vivo, mouse
Protocol: The C57BL/6J (Rho^+/+) mice and Rho^P23H/P23H mice were purchased from Jackson Laboratory (Stock No 017628) generated by Dr. Krzysztof Palczewski's lab. The Rho^P23H/P23H mice were crossed with wild-type C57BL/6J mice to produce P23H heterozygotes mice. Genotyping for all strains was conducted as guided using forward and reverse primers: 1) GGTAGCACTGTTGGGCATCT (SEQ ID NO: 5); and 2) GACCCCACAGAGACAAGCTC (SEQ ID NO: 6), respectively. The PCR products at 573 and 399 bp indicated the P23H knock-in mutant and WT allele of the RHO gene, respectively. Mice were bred and housed under standard 12-h light/12-h dark conditions in the University of Pittsburgh animal facility. All animal experiments were approved by the University of Pittsburgh Institutional Animal Care and Use Committee (IACUC) following the guide for the Animal Welfare Act and Regulations.
To determine the effect of compounds on retina in vivo, we administered compounds directly into the vitreous space. Briefly, mice were treated with 1% tropicamide eye drops (Akorn, Lake Forest, IL USA) to dilate the pupils and then they were anesthetized with an intraperitoneal injection of ketamine (Henry Schein, Dublin, OH USA) at 80 mg/kg body weight (bw) and xylazine (Bimeda, Le Sueur, MN USA) at 7 mg/kg bw. One drop of 0.5% tetracaine hydrochloride (TCI, Tokyo, Japan) was applied to mouse eyes as topical anesthetics before injection. Eyes were kept lubricated during the injections by a 0.3% hypromellose eye gel (Alcon, Fort Worth, TX USA). A heating pad was used for maintaining body temperature. Mice were positioned to expose the sclera of the eyes. A 30-gauge needle (Medline, Northfield, IL USA) was used to puncture a hole through sclera behind limbus at a 45° angle. A 33-gauge blunt-end needle (Hamilton, Reno, NV USA) was used to be inserted into the hole and a total of 0.5 μL of sterile PBS or MTX in PBS was slowly injected into the posterior chamber and the needle was kept in place for about 30 seconds before a slow removal of the needle. A small amount of Triantibiotic ointment (Medline, Northfield, IL USA) was applied on the injection site to prevent infection. A single IVI with 25 or 100 pmol of MTX was administered to one eye of each Rho^P23H/+ mice at postnatal day (PND) 15, and PBS was injected to the other eye as vehicle control. We also performed four weekly IVIs of MTX or PBS to the second group of Rho^P23H/+ mouse eyes at PND 15, 22, 29 and 36.
Eyes were enucleated by a pair of curved-tip forceps and fixed in the freshly prepared 4% paraformaldehyde for 2 h. Fixed eyes were dehydrated sequentially in 5, 10, 20 and 40% sucrose solutions in PBS each for 30 min at room temperature. Finally, eyes were incubated in a mixture of 40% sucrose in PBS and O.C.T. compound (FisherScientific, Houston, TX USA) at 1:1 volume ratio for overnight at 4° C. before they are embedded in the same mixed solution in an orientation-specific manner and frozen in liquid nitrogen-bathed isobutene. Twelve-micron retinal cross-sections were made by a microtome at −16° C. and those containing the optic nerve head were applied onto a SuperFrost glass slide (FisherScientific, Houston, TX USA). These slides were then used for IHC. After rehydration and permeabilization in PBST for 15 min, retinal sections were incubated in 5% goat serum for 30 min, and then they were incubated with PBS containing the mouse 1D4 anti-rhodopsin antibody (20 μg/mL) for 2 hours at room temperature in a humidified chamber. The retinal sections were washed with PBST for four times and incubated with Cy3 conjugated goat anti-mouse antibody (5 μg/mL) for 1 hour at room temperature. Hoechst 33342 (1:10000 dilution) was applied for 5 min to stain the nuclei. Sections were mounted with the ProlongGold mounting solution (ThermoFisher, Waltham, MA USA). Immunofluorescence images were then taken by a fluorescence microscope for low-magnification images and a confocal microscope for high-magnification images. […]

[4] = system: rabbits; conditions: 1.76 μmol MTX (about 1 mM in vitreous); cited from earlier work
[5] = four IVIs of 25 pmol, PND 46, vs PBS, superior side, not inferior side
[6] = single IVI 25 pmol, PND 33, vs PBS, superior side, not inferior side

With `CN(Cc1cnc2nc(N)nc(N)c2n1)c1ccc(C(=O)N[C@@H](CCC(=O)O)C(=O)O)cc1` [CL-009, N-[4-[[(2,4-diamino-6-pteridinyl)methyl]methylamino]benzoyl]-L-glutamic acid] the “MTX induced P23H rhodopsin clearance under BafA1 co-treatment (immunoblot)” value [1] was “abolished”, the “LC3-II level in retinae” value [2] was “increase” and the “SQSTM1/p62 level in retinae” value [2] was “decrease”. The “retinal degeneration caused by MTX” value ([3]; 100 pmol IVI, Rho^P23H/+ mice) was “did not see obvious retinal degeneration”, the “level of rhodopsin in the ONL (IHC)” value [3, 5] was “lower” and the “levels of rhodopsin in the OS (IHC)” value [3, 5] was “significantly higher”. For the same compound, the “nucleus number in the ONL” value [3, 5] was “higher”, the “rhodopsin in the OS (IHC)” value [3, 6] was “significant increase” and the “total rhodopsin level in retinae (IHC)” value [3, 6] was “significant increase”. For the same compound, the ONL nucleus number ([3]; single IVI, PND 33, either side of the retina) was “No change” and the “retinal damage after intravitreal injection” value [4] was “Retinal damages were observed”.
